Test results taken from patent US20240254135A1, “POLYPHENOL COMPOUNDS” (Epirium Bio Inc., priority 2022, published 2024).

Target: T1, mitochondrial ATP synthase (Mus musculus, UniProt P56480+Q03265)
T1 construct: from tissue; host or cells: mouse heart, isolated mitochondria (fresh or frozen)
Experiment: ATP synthesis (oxygen consumption, Seahorse XF96) in fresh heart mitochondria
Assay type: biochemical
Text: To assess whether the fraction of synthetic and reverse hydrolytic activities of mitochondrial ATP synthase can be measured in the same preparation, a protocol was developed to monitor changes in oxygen consumption and proton release in response to changes in mitochondrial ATP synthase activity. The proton released and the concomitant changes in the pH can be monitored using the ECAR (extracellular acidification) channel in the Agilent Seahorse XF analyzer using isolated mitochondria, to ensure that the changes in pH cannot be attributed to glycolysis or other contributors to ECAR.
Mice were anesthetized with isoflurane followed by a cervical dislocation, and the heart was immediately removed and placed in ice cold relaxation buffer (5 mM sodium pyrophosphate, 100 mM KCl, 5 mM EGTA, 5 mM HEPES; pH 7.4). The heart was squeezed with tweezers to remove blood, minced with scissors, and then placed in a glass-glass Dounce homogenizer with 3 mL of HES homogenization buffer (250 mM sucrose, 5 mM HEPES, 1 mM EDTA; pH to 7.2, adjusted with KOH). The heart tissue was homogenized first with the loose pestle and followed by the tight pestle. The homogenized tissue was placed in a pre-chilled 15 ml conical tube and centrifuged at 900×g (4° C.) for 10 minutes (min). The supernatant was removed, placed in a new tube and centrifuged again at 900×g for 10 min. The supernatant was then transferred to 2 mL microcentrifuge tubes and centrifuged at 10,000×g (4° C.) for 10 min. The mitochondrial pellets were re-suspended in ice cold HES buffer and mitochondrial protein was measured with a BCA assay (Pierce). The concentrated mitochondrial pellet was stored on ice.
Heart mitochondria (0.75-1.5 μg) were loaded into a Seahorse XF96 microplate in 20 μL of MAS (70 mM Sucrose, 220 mM Mannitol, 5 mM KH2PO4, 5 mM MgCl2, 1 mM EGTA, 2 mM HEPES; pH 7.2) plus 1% free fatty acid BSA containing substrates. The loaded plate was centrifuged at 2,000×g for 5 min at 4° C. […]
Oxygen consumption was measured in isolated fresh intact mitochondria from mouse heart, as oxygen consumption is linked to maximal ATP synthesis and proton release when mitochondria are respiring either in the presence of substrates and ADP (ATP synthesizing mitochondria or state 3) or in the presence of substrates but not ADP (state 4). […]
OCR and ECAR were measured in a Seahorse XF96 analyzer under basal conditions as well as after injection of 2 μM oligomycin, two sequential additions of 1.5 μM FCCP, followed by 1 μM rotenone with 2 μM antimycin A. Respiratory parameters were calculated according to standard protocols, and all rates were corrected for non-mitochondrial respiration/background signal by subtracting the oxygen consumption rate insensitive to rotenone plus antimycin A.

Measured: change in ATP synthesis

Oc1ccc2c(c1)OC(c1ccc(O)c(C(F)(F)F)c1)C(O)C2 (single isomer, unassigned) [Compound 77b, 2-(4-hydroxy-3-(trifluoromethyl)phenyl)chromane-3,7-diol]
no change: Complex I substrates, fresh mitochondria | Complex II substrates, fresh mitochondria | fresh heart mitochondria (FIG. 1, FIG. 2)
